Measured values taken from patent US8178522B2, “Thiazoles” (Hoffmann-La Roche Inc., priority 2009, dated 2012).

Biological target: T1, GABA A α5 (α5β3γ2) (Homo sapiens, UniProt P18507+P31644)
T1 construct: expressed in transfected cells; host or cells: HEK293, transiently transfected; membrane preparation
Assay: [3H]flumazenil competition binding, human GABA A α5 receptor
Conditions: human receptor α5β3γ2 transiently transfected in HEK293 cells; competition for [3H]flumazenil 0.5 nM; 1 hour at 4° C.; means of two determinations; read-out: hKi GABA A α5
In short: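 Competition with [3H]flumazenil at membranes from HEK293 cells transiently expressing human α5β3γ2, in Krebs-tris buffer pH 7.5. Equilibrium 1 hour at 4° C, filtration with ice-cold 50 mM Tris wash, scintillation counting. Ki values are means of two determinations.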

Row | Ki [nM] | SMILES
1 | 57.8 | CCCCc1noc(C)c1/C=C/c1nc(C)c(C(=O)N2CCOCC2)s1 [Example 120, {2-[(E)-2-(3-Butyl-5-methyl-isoxazol-4-yl)-vinyl]-4-methyl-thiazol-5-yl}-morpholin-4-yl-methanone]
2 | 5 | CCCCc1noc(C)c1/C=C/c1nc(C)c(C(=O)NCC)s1 [Example 121, 2-[(E)-2-(3-Butyl-5-methyl-isoxazol-4-yl)-vinyl]-4-methyl-thiazole-5-carboxylic acid ethylamide]
3 | 5.7 | CCCCc1noc(C)c1/C=C/c1nc(C)c(C(=O)NC)s1 [Example 122, 2-[(E)-2-(3-Butyl-5-methyl-isoxazol-4-yl)-vinyl]-4-methyl-thiazole-5-carboxylic acid methylamide]
4 | 1.1 | CCCCc1noc(C)c1/C=C/c1nc(C)c(C(=O)N2CC3(COC3)C2)s1 [Example 123, {2-[(E)-2-(3-Butyl-5-methyl-isoxazol-4-yl)-vinyl]-4-methyl-thiazol-5-yl}-(2-oxa-6-aza-spiro[3.3]hept-6-yl)-methanone]
5 | 5.5 | CCCCc1noc(C)c1/C=C/c1ncc(C(=O)NC(C)C)s1 [Example 124, 2-[(E)-2-(3-Butyl-5-methyl-isoxazol-4-yl)-vinyl]-thiazole-5-carboxylic acid isoprop-ylamide]

More lines, now with the values behind:

Row | SMILES | Ki [nM]
6 | CCCCc1noc(C)c1/C=C/c1ncc(C(=O)NCCO)s1 [Example 125, 2-[(E)-2-(3-Butyl-5-methyl-isoxazol-4-yl)-vinyl]-thiazole-5-carboxylic acid (2-hydroxy-ethyl)-amide] | 6.6
7 | CCOC(=O)c1cnc(OCc2c(-c3ccccc3)noc2C)s1 [Example 126, 2-(5-Methyl-3-phenyl-isoxazol-4-ylmethoxy)-thiazole-5-carboxylic acid ethyl ester] | 16.8
8 | Cc1onc(-c2ccccc2)c1COc1ncc(C(=O)NC(C)C)s1 [Example 127, 2-(5-Methyl-3-phenyl-isoxazol-4-ylmethoxy)-thiazole-5-carboxylic acid isoprop-ylamide] | 2.2
9 | Cc1onc(-c2ccccc2)c1COc1ncc(C(=O)NC2CCOCC2)s1 [Example 128, 2-(5-Methyl-3-phenyl-isoxazol-4-ylmethoxy)-thiazole-5-carboxylic acid (tetrahydro-pyran-4-yl)-amide] | 1.8
10 | Cc1onc(-c2ccccc2)c1COc1ncc(C(=O)NC(C)CO)s1 (stereo not shown) [Example 129, 2-(5-Methyl-3-phenyl-isoxazol-4-ylmethoxy)-thiazole-5-carboxylic acid (2-hydroxy-1-methyl-ethyl)-amide] | 4.2
11 | Cc1onc(-c2ccccc2)c1COc1ncc(C(=O)NCCO)s1 [Example 130, 2-(5-Methyl-3-phenyl-isoxazol-4-ylmethoxy)-thiazole-5-carboxylic acid (2-hydroxy-ethyl)-amide] | 5.4
12 | Cc1onc(-c2ccccc2)c1COc1ncc(C(=O)NC(C)(C)CO)s1 [Example 131, 2-(5-Methyl-3-phenyl-isoxazol-4-ylmethoxy)-thiazole-5-carboxylic acid (2-hydroxy-1,1-dimethyl-ethyl)-amide] | 12.7
13 | CCCCc1noc(C)c1COc1ncc(C(=O)NC(C)C)s1 [Example 132, 2-(3-Butyl-5-methyl-isoxazol-4-ylmethoxy)-thiazole-5-carboxylic acid isopropylamide] | 10.2
14 | CCCCc1noc(C)c1COc1ncc(C(=O)NCCO)s1 [Example 134, 2-(3-Butyl-5-methyl-isoxazol-4-ylmethoxy)-thiazole-5-carboxylic acid (2-hydroxy-ethyl)-amide] | 21.5
15 | Cc1onc(-c2ccccc2)c1CNc1ncc(C(=O)NC(C)C)s1 [Example 135, 2-[(5-Methyl-3-phenyl-isoxazol-4-ylmethyl)-amino]-thiazole-5-carboxylic acid isoprop-ylamide] | 9
16 | Cc1onc(-c2ccccc2)c1CNc1ncc(C(=O)NC2CCOCC2)s1 [Example 136, 2-[(5-Methyl-3-phenyl-isoxazol-4-ylmethyl)-amino]-thiazole-5-carboxylic acid (tetra-hydro-pyran-4-yl)-amide] | 27.5
